# Source: patent US20110183975A1, “NOVEL 6-AZAINDOLE AMINOPYRIMIDINE DERIVATIVES HAVING NIK INHIBITORY ACTIVITY” (priority 2008, published 2011)
# Legend:
# Truncated human NIK = target: T1, Truncated human NIK (Homo sapiens, UniProt Q99558); assay: NIK inhibitory activity: SRPKtide phosphorylation with [γ-33P] ATP, filter plate; format: biochemical; settings: GST-tagged truncated human NIK, 20 μM peptide substrate, 10 μM ATP, 25° C., 240 minutes
# T1 construct: made in house; host or cells: Sf9 insect cells (baculovirus)
# T1 sequence (Q99558 319-947): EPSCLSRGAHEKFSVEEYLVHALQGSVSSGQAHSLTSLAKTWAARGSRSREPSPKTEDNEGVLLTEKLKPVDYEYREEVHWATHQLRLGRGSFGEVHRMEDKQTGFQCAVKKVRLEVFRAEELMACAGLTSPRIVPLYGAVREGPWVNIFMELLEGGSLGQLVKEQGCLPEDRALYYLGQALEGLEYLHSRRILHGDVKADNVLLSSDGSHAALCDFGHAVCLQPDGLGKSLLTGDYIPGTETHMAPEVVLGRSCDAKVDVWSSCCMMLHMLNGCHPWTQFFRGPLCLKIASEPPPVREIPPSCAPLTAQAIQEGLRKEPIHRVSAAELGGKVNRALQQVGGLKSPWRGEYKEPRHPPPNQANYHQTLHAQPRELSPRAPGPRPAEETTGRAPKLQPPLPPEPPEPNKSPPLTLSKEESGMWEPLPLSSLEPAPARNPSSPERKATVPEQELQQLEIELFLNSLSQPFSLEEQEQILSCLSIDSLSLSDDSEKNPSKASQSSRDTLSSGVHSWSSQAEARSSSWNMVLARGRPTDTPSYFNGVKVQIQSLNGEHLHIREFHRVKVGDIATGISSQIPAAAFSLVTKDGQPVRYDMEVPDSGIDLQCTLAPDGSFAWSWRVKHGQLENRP
# Source text: Truncated human NIK [319-947(end) amino acids of accession number AAH35576] was expressed in sf9 cells as N-terminus gluthatione-S-transferase (GST)-tagged protein using baculovirus expression system. The sf9 cells were harvested and lysed, and then the GST-tagged human NIK protein was applied onto a glutathione column (GSTrap, GE Healthcare) and eluted from the column with reduced glutathione. The active fractions were desalted with a desalting column (PD-10, GE Healthcare) to give a purified enzyme.
# For measurement of the activity of NIK, the SRPKtide peptide (Arg-Ser-Arg-Ser-Arg-Ser-Arg-Ser-Arg-Ser-Arg-Ser-Arg-Ser-Arg-NH2) (SEQ.ID.NO.:1) was synthesized as a substrate, as described above.
# The phosphorylation reaction was conducted using 384 well plate, and the reaction volume was 10.5 μL/well. The reaction buffer is comprised of 10 mM 3-Morpholinopropanesulfonic acid buffer (pH 7.4), 5 mM magnesium chloride, 1 mM O,O′-Bis (2-aminoethyl) ethyleneglycol-N,N,N′,N′-tetraacetic acid (EGTA) and 1 mM dithiothreitol. Thereto, the purified NIK protein, 20 μM of the peptide substrate, 10 μM of adenosine 5′-triphosphate (ATP) and 0.5 μCi [γ-33P] ATP solution were added, and then the reaction was carried out at 25° C. for 240 minutes. The [γ-33P]-labeled ATP was purchased from PerkinElmer Inc.
# After the termination of the reaction by adding 20 μL of 350 mM phosphoric acid (H3PO4), the substrate peptide was adsorbed on a filter plate (Millipore Multiscreen, MZPHN0W50). The substrate-bound filter plate was washed with 130 mM phosphoric acid for several times and then 8 μL of Microscinti-O (PerkinElmer Inc.) was added to the each well. The radiation activity of the peptide was measured with TopCount NXT Microscintillation Counter (PerkinElmer Inc.).
# (§1) The compound to be tested was diluted in dimethylsulfoxide (DMSO) and then 0.5 μL of this solution was added to each well. Each control well was provided by adding 0.5 μL of DMSO to the well in place of the DMSO solution containing the compound to be tested.
# [1] = target: T2, human ROCK2 catalytic domain (Homo sapiens, UniProt O75116); assay: ROCK2 inhibitory activity: peptide phosphorylation, IMAP fluorescence polarization; format: biochemical; settings: for IC50: His-tagged human ROCK2, 100 nM peptide substrate, 5 μM ATP, 30° C., 150 minutes; for Selectivity of NIK over ROCK2: IC50 for ROCK2 divided by IC50 for NIK
# T2 construct: made in house; host or cells: Sf9 insect cells
# T2 sequence (O75116 11-552): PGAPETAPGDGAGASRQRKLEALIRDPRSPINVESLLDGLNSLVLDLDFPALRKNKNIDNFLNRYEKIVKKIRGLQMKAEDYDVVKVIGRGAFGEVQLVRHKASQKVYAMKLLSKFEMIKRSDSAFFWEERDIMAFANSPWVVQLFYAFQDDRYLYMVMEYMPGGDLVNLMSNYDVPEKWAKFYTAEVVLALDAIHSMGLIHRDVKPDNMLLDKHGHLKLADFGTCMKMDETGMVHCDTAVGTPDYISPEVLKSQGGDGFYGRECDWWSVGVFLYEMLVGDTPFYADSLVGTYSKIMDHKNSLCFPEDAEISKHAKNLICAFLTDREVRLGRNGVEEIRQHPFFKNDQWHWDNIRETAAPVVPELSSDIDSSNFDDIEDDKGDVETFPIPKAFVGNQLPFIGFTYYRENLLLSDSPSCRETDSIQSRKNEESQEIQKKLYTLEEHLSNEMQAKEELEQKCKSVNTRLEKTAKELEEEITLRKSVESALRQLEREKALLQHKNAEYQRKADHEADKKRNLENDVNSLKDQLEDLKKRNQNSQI
# Source text: cDNA of N-terminal His-tagged human ROCK2 catalytic domain [11-552 amino acids of accession number NP_00004841.2] was integrated into an expression vector, which was then highly expressed in sf9 cells. The sf9 cells were harvested and lysed, and then the His-tagged human ROCK2 protein was applied onto HisTrap HP (GE Healthcare) and eluted from the column with imidazole. The active fractions were desalted with a desalting column (PD-10, GE Healthcare) to give a purified enzyme.
# For measurement of the activity of ROCK2, the substrate used was a synthetic peptide (5-FAM (5-carboxyfluorescein)-Ala-Lys-Arg-Arg-Arg-Leu-Ser-Ser-Leu-Arg-Ala-OH) (SEQ.ID.NO.:2) (Trauger J W. et. al, Biochemistry, 41, 8948-8953 (2002)), which was custom-made by JPT Peptide Technologies GmbH.
# For detection of phosphorylation of the substrate, IMAP® technology (Molecular Devices, Co. Ltd.) (Gaudet E W. et. al, J. Biomol. Screen, 8, 164-175(2003)) was used.
# The phosphorylation reaction was conducted using 384 well plate, and the reaction volume was 10.5 μL/well. The reaction buffer is comprised of 50 mM Tris-chloride buffer (pH 7.5), 10 mM magnesium acetate, 1 mM O,O′-Bis(2-aminoethyl)ethyleneglycol-N,N,N′,N′-tetraacetic acid (EGTA) and 1 mM dithiothreitol. Thereto, the purified ROCK2 protein, 100 nM of the peptide substrate, and 5 μM of adenosine 5′-triphosphate were added, and then the reaction was carried out at 30° C. for 150 minutes.
# Thereafter, in order to terminate and detect the reaction, 30 μL of the IMAP (registered trademark) binding reagent (IMAP Progressive Binding Reagent) that had been diluted (1:500) in the 1× IMAP binding buffer A (IMAP Progressive Binding Buffer A, 5× stock) was added to each well. The solution stood still for 30 minutes in the dark, and then fluorescence polarization was measured using a high-end microplate reader (excitation wavelength: 485 nm; emission wavelength: 520 nm).
# as §1, with “tested. In Table 3, the selectivity of NIK over ROCK2 was calculated by dividing the value of IC50 for ROCK2 by the value of IC50 for NIK.” for “tested.”
# [2] = target: T3, human NIK (U-2 OS Tet-On-NIK cells) (Homo sapiens, UniProt Q99558); assay: Cellular NIK inhibitory activity using ELISA-based IKKalpha phosphorylation assay; format: cell-based; settings: NIK dependent IKKalpha phosphorylation, doxycycline 2 micrograms/ml, 24 hours
# T3 construct: expressed in transfected cells; host or cells: U-2 OS Tet-On cells carrying NF-kappa B reporter genes, stably transfected with pTRE2hyg-NIK
# T3 sequence (Q99558 whole entry): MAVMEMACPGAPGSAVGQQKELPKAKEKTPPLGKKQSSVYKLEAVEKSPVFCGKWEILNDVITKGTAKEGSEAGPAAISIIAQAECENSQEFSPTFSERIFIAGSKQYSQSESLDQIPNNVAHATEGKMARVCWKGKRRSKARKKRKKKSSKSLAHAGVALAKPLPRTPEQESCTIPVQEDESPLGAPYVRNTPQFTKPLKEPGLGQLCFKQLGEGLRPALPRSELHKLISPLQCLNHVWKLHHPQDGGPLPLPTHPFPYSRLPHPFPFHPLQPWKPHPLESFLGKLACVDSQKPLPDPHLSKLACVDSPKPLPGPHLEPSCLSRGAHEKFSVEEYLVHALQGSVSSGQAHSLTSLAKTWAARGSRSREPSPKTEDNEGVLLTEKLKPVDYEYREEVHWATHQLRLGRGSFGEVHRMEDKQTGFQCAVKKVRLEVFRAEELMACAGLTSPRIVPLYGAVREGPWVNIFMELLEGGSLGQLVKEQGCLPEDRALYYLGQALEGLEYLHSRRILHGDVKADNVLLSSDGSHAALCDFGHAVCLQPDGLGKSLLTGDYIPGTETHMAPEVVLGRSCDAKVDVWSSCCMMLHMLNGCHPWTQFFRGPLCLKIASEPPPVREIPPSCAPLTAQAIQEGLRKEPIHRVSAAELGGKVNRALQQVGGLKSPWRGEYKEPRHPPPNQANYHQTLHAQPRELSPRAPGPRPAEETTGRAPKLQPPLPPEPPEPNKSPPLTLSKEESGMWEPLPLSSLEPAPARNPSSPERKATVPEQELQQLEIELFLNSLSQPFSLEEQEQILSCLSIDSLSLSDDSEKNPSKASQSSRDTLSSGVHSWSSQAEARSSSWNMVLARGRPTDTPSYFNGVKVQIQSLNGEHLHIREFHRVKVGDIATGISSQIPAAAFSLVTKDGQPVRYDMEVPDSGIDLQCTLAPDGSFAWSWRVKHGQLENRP
# Experimental: NF-kappa B reporter genes (Clontech Laboratories, Inc.) was introduced into U-2 OS Tet-On cell line (Clontech Laboratories, Inc.) by the co-transfection with puromycin resistance gene (Clontech Laboratories, Inc.). […] NIK protein expression in this established cells (U-2 OS Tet-On-NIK) was controlled in a doxycycline dependent manner. The cells were cultured in DMEM containing 10% FBS, 100 units/ml of penicillin, 0.1 mg of streptomycin sulfate, 100 microgram/ml of hygromycin and 1 microgram/ml of puromycin (Growth medium).
# U-2 OS Tet-On-NIK cells were plated on 96-well plate (Nunc) at 20000 cells per well and were incubated overnight at 37° C. in 5% CO2-95% air. The tested compound was diluted in dimethylsulfoxide (DMSO) and further diluted with a growth medium. Then the compound solution and doxycycline (Clontech Laboratories, Inc.) solution (final working concentration is 2 micrograms/ml) were simultaneously added to the each well. […]
# Rabbit anti-IKKalpha [pSpS176/180] phosphospecific antibody (Biosource International, Inc.) or rabbit anti-IKKalpha antibody (Abcam, Inc.) was incubated on wells of an MAXISORP ELISA plate (Nunc) at 4° C. for overnight. […] After stopping HRP-reactions (SureBlue Reserve™ TMB substrate, Kirkegaard & Perry Laboratories, Inc.) by 1N hydrochloric acid, the optical density in each well was determined using a SpectraMax Plus 384 (Molecular Devices Corporation) at 450 nm.
# Cellular NIK inhibitory activity of the test compound was represented as IC50 value determined by the following procedure.
# Optical density of phospho-IKKalpha in each sample was normalized using the ratio of phospho-IKKalpha to total IKKalpha. The % of Control value was calculated by the following equation. […]
# Then the IC50 value for NIK dependent IKKalpha phosphorylation was determined.
IC50 (Truncated human NIK) [nM],IC50 [1] [nM],Selectivity of NIK over ROCK2 [1],IC50 [2] [nM],Compound
84.5,1010,11.9,230,"CC(C)n1cc(-c2ccnc(Nc3cc(C(N)=O)ccc3OCc3ccccc3)n2)c2ccncc21 [Example 94, 4-Benzyloxy-3-[4-(1-isopropyl-1H-pyrrolo[2,3-c]pyridin-3-yl)-pyrimidin-2-ylamino]-benzamide]"
63.4,2590,40.9,140,"Cc1ccc(C(N)=O)cc1Nc1nccc(-c2cn(C(C)C)c3cnccc23)n1 [Example 85, 3-[4-(1-Isopropyl-1H-pyrrolo[2,3-c]pyridin-3-yl)-pyrimidin-2-ylamino]-4-methyl-benzamide]"
26.1,4520,173.3,200,"CNC(=O)c1ccc(OC)c(Nc2nccc(-c3cn(C(C)C)c4cnccc34)n2)c1 [Example 71, 3-[4-(1-Isopropyl-1H-pyrrolo[2,3-c]pyridin-3-yl)-pyrimidin-2-ylamino]-4-methoxy-N-methyl-benzamide]"

Compound,IC50 (Truncated human NIK) [nM],IC50 [1] [nM],Selectivity of NIK over ROCK2 [1],IC50 [2] [nM]
"CC(C)n1cc(-c2ccnc(Nc3ccccc3)n2)c2ccncc21 [Example 3, [4-(1-Isopropyl-1H-pyrrolo[2,3-c]pyridin-3-yl)-pyrimidin-2-yl]-phenyl-amine]",423,86,0.20,
